Laboratory results from US8008303B2, “Biphenyl derivatives and their use in treating hepatitis C” (AstraZeneca AB, priority 2005, dated 2011).
Like-named read-outs stand apart in the source and are kept apart here.

Assays:
[1] = tested on: HCV replicon cells Huh 9B; experiment: HCV replicon assay (luciferase readout); format: cell-based
Method: (§1) HCV replicon cells Huh 9B (ReBlikon), containing the firefly luciferase-ubiquitin-neomycin phosphotransferase fusion protein and EMCV-IRES driven HCV polyprotein with cell culture adaptive mutations.
Cells were cultured at 37° C. in a 5% CO2 environment and split twice a week on seeding at 2×10^6 cells/flask on day 1 and 1×10^6 3 days later. G418 at 0.5 mg/ml was added to the culture medium but not the assay medium.
The culture medium consisted of DMEM with […] glucose and glutamax (Gibco 61965-026) supplemented with 1× non-essential amino acids (Invitrogen 11140-035), penicillin (100 IU/ml)/streptomycin (100 μg/ml) (Invitrogen 15140-122), FCS (10%, 50 ml) and 1 mg/ml G418 (Invitrogen 10131-027) & 10% Australian foetal calf serum (Invitrogen 10099-141).
A flask of cells was trypsinised and a cell count carried out. Cells were diluted to 100,000 cells/ml and 100 μl of this used to seed one opaque white 96-well plate (for the replicon assay) and one flat-bottomed clear plate (for the tox assay) for every seven compounds to be tested for IC50. Wells G12 and H12 were left empty in the clear plate as the blank. Plates were then incubated at 37° C. in a 5% CO2 environment for 24 h.
(§2) On the following day compound dilutions are made up in medium at twice their desired final concentration in a clear round bottomed plate. All dilutions have a final DMSO concentration of 1%.
Once the dilution plate had been made up, controls and compounds were transferred to the assay plate (containing the cells) at 100 μl /well in duplicate plates. Exception: no compound was added to wells A1 and A2 of either plate and 100 μl of 1% DMSO was added to these instead. Plates were then incubated at 37° C. with 5% CO2 for 72 h.
At the end of the incubation time, the cells in the white plate were harvested by washing 23.5 mM beetle luciferin (Promega E1603), 26 mM ATP (Sigma 0-2060) in […] Tris buffer pH 7.8 aliquoted and stored at −80 C was thawed and diluted 1:50 in luciferase assay buffer (20 mM Tricine (Sigma T-0377), 1.07 mM magnesium carbonate hydroxide (Sigma M-5671), 0.1 mM EDTA (Sigma E-5134), 2.67 mM MgSO4 (BDH 101514Y), 33.3 mM dithiothreitol (Sigma 150460) pH 7.8).
The M injector of the microplate luminometer (Lmax, Molecular Devices) was primed with 5×300 μl injections of the diluted substrate. After 5-60 min incubation in lysis buffer at room temperature, a plate was inserted into the luminometer and 100 μl luciferase assay reagent was added by the injector on the luminometer. The signal was measured using a 1 second delay followed by a 4 second measurement programme.

[2] = tested on: HCV replicon cells Huh 9B; format: cell-based
Method: as §1
A flask of cells was trypsinised and a cell count carried out. […] Wells G12 and H12 were left empty in the clear plate as the blank. Plates were then incubated at 37° C. in a 5% CO2 environment for 24 h.
as §2
Exception: no compound was added to wells A1 and A2 of either plate and 100 μl of 1% DMSO was added to these instead. Plates were then incubated at 37° C. with 5% CO2 for 72 h.
The clear plate was stained with 100 μl 0.5% methylene blue in 50% ethanol at room temperature for 1 h, followed by solvation of the absorbed methylene blue in 100 μl per well of 1% lauroylsarcosine. Absorbance of the plate was measured on a microplate spectrophotometer (Molecular Devices) and the absorbance for each concentration of compound expressed as a proportion of the relative DMSO control.

[3] = concentration reducing replicon level (luciferase activity) by 50% vs untreated cell control, 72 h incubation
[4] = Hepatitis C virus, 72 h, concentration reducing replicon level (luciferase activity) by 50% vs untreated cell control, 72 h incubation
[5] = concentration reducing total cell area by 50% relative to DMSO controls, methylene blue, absorbance 620 nm, 72 h incubation

Work on “6-Methoxy-biphenyl-3,4′-dicarboxylic acid 4′-{[4-(1,1-dioxo-1lambda*6*-thiomorpholin-4-ylmethyl)-phenyl]-amide} 4′{[4-(4-methanesulfonyl-piperazin-1-ylmethyl)-phenyl]-amide} [Example 262]” yielded an IC50 [1] of under 1 µM.

“6-Methyl-biphenyl-3,4′-dicarboxylic acid 4′-[(1H-indol-6-yl)-amide] 3-[(4-morpholin-4-yl-phenyl)-amide] [Example 44]” showed an IC50 [1, 3] of under 1 µM.

In the case of `Cc1ccc(C(=O)Nc2ccc(N3CCOCC3)cc2)cc1-c1ccc(C(=O)Nc2cccc(Br)c2)cc1` [Example 1, 6-Methyl-biphenyl-3,4′-dicarboxylic acid 4′-[(3-bromo-phenyl)-amide] 3-[(4-morpholin-4-yl-phenyl)-amide]], the IC50 [1] is reported as 1 to 5 µM and the TD50 [2] is reported as “** (key: * < 50 μM; ** > 50 μM)”.

In the case of `COc1ccc(NC(=O)c2ccc(-c3cc(C(=O)Nc4ccc(N5CCOCC5)cc4)ccc3C)cc2)cn1` [Example 2, 6-Methyl-biphenyl-3,4′-dicarboxylic acid 4′-[(6-methoxy-pyridin-3-yl)-amide] 3-[(4-morpholin-4-yl-phenyl)-amide]], the IC50 [1] is reported as 1 to 5 µM and the TD50 [2] is reported as “** (key: * < 50 μM; ** > 50 μM)”.

In the case of `Cc1cccc(CNC(=O)c2ccc(-c3cc(C(=O)Nc4ccc(N5CCOCC5)cc4)ccc3C)cc2)c1` [Example 3, 6-Methyl-biphenyl-3,4′-dicarboxylic acid 4′-(3-methyl-benzylamide) 3-[(4-morpholin-4-yl-phenyl)-amide]], the IC50 [1] is reported as 1 to 5 µM and the TD50 [2] is reported as “** (key: * < 50 μM; ** > 50 μM)”.

With `Cc1ccc(C(=O)Nc2ccc(N3CCOCC3)cc2)cc1-c1ccc(C(=O)NCCC(C)C)cc1` [Example 4, 6-Methyl-biphenyl-3,4′-dicarboxylic acid 4′-[(3-methyl-butyl)-amide] 3-[(4-morpholin-4-yl-phenyl)-amide]] the IC50 [1] was 1 to 5 µM and the TD50 [2] was “** (key: * < 50 μM; ** > 50 μM)”.

In the case of `Cc1ccc(C(=O)Nc2ccc(N3CCOCC3)cc2)cc1-c1ccc(C(=O)NCc2cccc(F)c2)cc1` [Example 5, 6-Methyl-biphenyl-3,4′-dicarboxylic acid 4′-(3-fluoro-benzylamide) 3-[(4-morpholin-4-yl-phenyl)-amide]], the IC50 [1] is reported as 1 to 5 µM and the TD50 [2] is reported as “** (key: * < 50 μM; ** > 50 μM)”.

In the case of `Cc1ccc(C(=O)Nc2ccc(N3CCOCC3)cc2)cc1-c1ccc(C(=O)NCCN2CCCCC2)cc1` [Example 6, 6-Methyl-biphenyl-3,4′-dicarboxylic acid 3-[(4-morpholin-4-yl-phenyl)-amide] 4′-[(2-piperidin-1-yl-ethyl)-amide]], the IC50 [1] is reported as 1 to 5 µM and the TD50 [2] is reported as “* (key: * < 50 μM; ** > 50 μM)”.

For `Cc1ccc(C(=O)Nc2ccc(N3CCOCC3)cc2)cc1-c1ccc(C(=O)Nc2ccc(Br)cc2)cc1` [Example 7, 6-Methyl-biphenyl-3,4′-dicarboxylic acid 4′-[(4-bromo-phenyl)-amide] 3-[(4-morpholin-4-yl-phenyl)-amide]], the IC50 [1] was 1 to 5 µM and the TD50 [2] was “* (key: * < 50 μM; ** > 50 μM)”.

`Cc1ccc(C(=O)Nc2ccc(N3CCOCC3)cc2)cc1-c1ccc(C(=O)Nc2cccc(OCc3ccccc3)c2)cc1` [Example 8, 6-Methyl-biphenyl-3,4′-dicarboxylic acid 4′-[(3-benzyloxy-phenyl)-amide] 3-[(4-morpholin-4-yl-phenyl)-amide]] was tested, and the IC50 [1] was 1 to 5 µM and the TD50 [2] was “** (key: * < 50 μM; ** > 50 μM)”.

In the case of `Cc1ccc(C(=O)NCCCN2CCN(C)CC2)cc1-c1ccc(C(=O)Nc2ccc(N3CCOCC3)cc2)cc1` [Example 9, 6-Methyl-biphenyl-3,4′-dicarboxylic acid 3-{[3-(4-methyl-piperazin-1-yl)-propyl]-amide} 4′-[(4-morpholin-4-yl-phenyl)-amide]], the IC50 [1] is reported as over 5 µM and the TD50 [2] is reported as “* (key: * < 50 μM; ** > 50 μM)”.

With `Cc1ccc(C(=O)Nc2ccc(N3CCOCC3)cc2)cc1-c1ccc(C(=O)NCc2cccc(C(F)(F)F)c2)cc1` [Example 10, 6-Methyl-biphenyl-3,4′-dicarboxylic acid 3-[(4-morpholin-4-yl-phenyl)-amide] 4′-(3-trifluoromethyl-benzylamide)] the IC50 [1] was 1 to 5 µM and the TD50 [2] was “* (key: * < 50 μM; ** > 50 μM)”.

For `Cc1ccc(C(=O)Nc2ccc(N3CCOCC3)cc2)cc1-c1ccc(C(=O)NCCc2cccs2)cc1` [Example 11, 6-Methyl-biphenyl-3,4′-dicarboxylic acid 3-[(4-morpholin-4-yl-phenyl)-amide] 4′-[(2-thiophen-2-yl-ethyl)-amide]], the IC50 [1] was 1 to 5 µM and the TD50 [2] was “** (key: * < 50 μM; ** > 50 μM)”.

For `Cc1ccc(C(=O)Nc2ccc(N3CCOCC3)cc2)cc1-c1ccc(C(=O)Nc2ccc3cn[nH]c3c2)cc1` [Example 12, 6-Methyl-biphenyl-3,4′-dicarboxylic acid 4′-[(1H-indazol-6-yl)-amide] 3-[(4-morpholin-4-yl-phenyl)-amide]], the IC50 [1] was 1 to 5 µM and the TD50 [2] was “** (key: * < 50 μM; ** > 50 μM)”.

In the case of `Cc1ccc(C(=O)Nc2ccc(N3CCOCC3)cc2)cc1-c1ccc(C(=O)NCCc2cnc[nH]2)cc1` [Example 13, 6-Methyl-biphenyl-3,4′-dicarboxylic acid 4′-{[2-(3H -imidazol-4-yl)-ethyl]-amide} 3-[(4-morpholin-4-yl-phenyl)-amide]], the IC50 [1] is reported as over 5 µM and the TD50 [2] is reported as “* (key: * < 50 μM; ** > 50 μM)”.

In the case of `Cc1ccc(CNC(=O)c2ccc(-c3cc(C(=O)Nc4ccc(N5CCOCC5)cc4)ccc3C)cc2)o1` [Example 14, 6-Methyl-biphenyl-3,4′-dicarboxylic acid 4′-[(5-methyl-furan-2-ylmethyl)-amide] 3-[(4-morpholin-4-yl-phenyl)-amide]], the IC50 [1] is reported as 1 to 5 µM and the TD50 [2] is reported as “** (key: * < 50 μM; ** > 50 μM)”.

With `Cc1ccc(C(=O)Nc2ccc(N3CCOCC3)cc2)cc1-c1ccc(C(=O)N2CCCC2)cc1` [Example 15, 6-Methyl-4′-(pyrrolidine-1-carbonyl)-biphenyl-3-carboxylic acid (4-morpholin-4-yl-phenyl)-amide] the IC50 [1, 4] was over 5 µM and the TD50 [2, 5] was “* (* < 50 μM)”.

`Cc1ccc(C(=O)Nc2ccc(N3CCOCC3)cc2)cc1-c1ccc(C(=O)Nc2ccc3c(c2)OCO3)cc1` [Example 16, 6-Methyl-biphenyl-3,4′-dicarboxylic acid 4′-benzo[1,3]dioxol-5-ylamide 3-[(4-morpholin-4-yl-phenyl)-amide]] was tested, and the IC50 [1] was 1 to 5 µM and the TD50 [2] was “** (key: * < 50 μM; ** > 50 μM)”.

For `Cc1ccc(C(=O)NC2CC2)cc1-c1ccc(C(=O)Nc2ccc(N3CCOCC3)cc2)cc1` [Example 17, 6-Methyl-biphenyl-3,4′-dicarboxylic acid 3-cyclopropylamide 4′-[(4-morpholin-4-yl-phenyl)-amide]], the IC50 [1] was 1 to 5 µM and the TD50 [2] was “* (key: * < 50 μM; ** > 50 μM)”.

In the case of `Cc1ccc(NC(=O)c2ccco2)cc1-c1ccc(C(=O)Nc2ccc(N3CCOCC3)cc2)cc1` [Example 18, Furan-2-carboxylic acid [6-methyl-4′-(4-morpholin-4-yl-phenylcarbamoyl)-biphenyl-3-yl]-amide], the IC50 [1, 4] is reported as 1 to 5 µM and the TD50 [2, 5] is reported as “* (* < 50 μM)”.

`Cc1ccc(C(=O)Nc2ccc(N3CCOCC3)cc2)cc1-c1ccc(C(=O)Nc2cccc(C(=O)c3ccccc3)c2)cc1` [Example 19, 6-Methyl-biphenyl-3,4′-dicarboxylic acid 4′-[(3-benzoyl-phenyl)-amide] 3-[(4-morpholin-4-yl-phenyl)-amide]] was tested, and the IC50 [1, 3] was 1 to 5 µM and the TD50 [2, 5] was “** (** > 50 μM)”.

In the case of `Cc1ccc(CNc2ccc3cn[nH]c3c2)cc1-c1ccc(C(=O)Nc2ccc(CN3CCS(=O)(=O)CC3)cc2)cc1` [Example 201, 5′-[(1H-Indazol-6-ylamino)-methyl]-2′-methyl-biphenyl-4-carboxylic acid [4-(1,1-dioxo-1lambda*6*-thiomorpholin-4-ylmethyl)-phenyl]-amide], the TD50 [2, 5] is reported as “* (* < 50 μM)”.
